Test results published in patent publication US9714225B2, “Processes for the preparation of lorcaserin” (CADILA HEALTHCARE LIMITED, priority 2013, dated 2017).
Where a name gives a salt, the structure may show the parent alone.

Key:
[1] = cited from earlier work
[2] = Stability of crystalline Form I of lorcaserin hydrochloride stored packed for at least 3 months; assay type: physicochemical; conditions: 25° C./60% RH and 40° C./75% RH
Experimental: The crystalline Form I of lorcaserin hydrochloride having less than 0.5% water as manufactured by the process of the present invention was subjected to stability for at least 3 months at 25° C./60% RH or at about 40° C./75% RH.
In a further aspect, the stable crystalline Form I of lorcaserin hydrochloride can be stored under nitrogen atmosphere and packed in a double polythene bag which is either heat sealed or twisted and tied with a thread (primary packing). The primary packing containing the crystalline Form I of lorcaserin hydrochloride can be kept inside a black color polyethylene bag containing a desiccant (molecular sieves) which is either heat sealed or twisted and tied, and the above double polyethylene bags may further be placed inside a triple laminated bag, optionally containing a desiccant which is either heat sealed or twisted and tied. Finally, the triple laminated bag can be kept inside a closed high density polyethylene (HDPE) container and stored in a controlled environment chamber at 25° C. and/or 40° C.

[3] = 2 Months, LDPE bag closed with a heat seal (Table 1)
[4] = 2 Months, LDPE bag closed with a twist and tie (Table 2)
[5] = 3 Months, LDPE bag closed with a heat seal (Table 1)
[6] = 3 Months, LDPE bag closed with a twist and tie (Table 2)

In the case of `C[C@H]1CNCCc2ccc(Cl)cc21.Cl` [(R)-8-chloro-1-methyl-2,3,4,5-tetrahydro-1H-3-benzazepine hydrochloride], the “moisture adsorbed (calculated)” value ([1]; DVS, between about 40 and about 80% RH) is listed as “about 3.8%”, the “relative humidity (RH) above which moisture is readily adsorbed” value ([1]; DVS) is listed as 40-60% and the “crystalline form by XRPD after the DVS cycle” value [1] is listed as “conversion to the hemihydrate (Form III)”. The “Water (%)” value ([2]; 1 Month, LDPE bag closed with a heat seal (Table 1), specification Less than 0.5% w/w) was 0.31%, the “X-Ray Diffraction” value ([2]; 1 Month, LDPE bag closed with a heat seal (Table 1), specification: should confirm the Form-I) was “Form I” and the “Water (%)” value ([2]; 1 Month, LDPE bag closed with a twist and tie (Table 2), specification Less than 0.5% w/w) was 0.31%. The “X-Ray Diffraction” value ([2]; 1 Month, LDPE bag closed with a twist and tie (Table 2), specification: should confirm the Form-I) was “Form I”, the Description ([2]; 1 Month, LDPE bag purged with nitrogen closed with a heat seal (Table 1), specification White to off-white) was “off-” and the Description ([2]; 1 Month, LDPE bag purged with nitrogen closed with a twist and tie (Table 2), specification White to off-white) was “off-”. For the same molecule, the Description [2, 3] was “off-”, the “Water (%)” value [2, 3] was 0.35% and the “X-Ray Diffraction” value [2, 3] was “Form I”. The Description [2, 4] was “off-”, the “Water (%)” value [2, 4] was 0.35% and the “X-Ray Diffraction” value [2, 4] was “Form I”. The Description [2, 5] was “off-white”, the “Water (%)” value [2, 5] was 0.35% and the “X-Ray Diffraction” value [2, 5] was “Form I”. For the same molecule, the Description [2, 6] was “off-white”, the “Water (%)” value [2, 6] was 0.35% and the “X-Ray Diffraction” value [2, 6] was “Form I”.
In the case of `C[C@H]1CNCCc2ccc(Cl)cc21` [Form III, (R)-8-chloro-1-methyl-2,3,4,5-tetrahydro-1H-3-benzazepine hydrochloride hemihydrate], the water adsorbed ([1]; DVS, at 90% RH) is listed as “less than 0.5%” and the “crystalline form by XRPD after the DVS cycle” value [1] is listed as “no change in crystalline form”.
